Counter-ions that a name gives are not always drawn. Like-named read-outs stand apart in the source and are kept apart here.
Biological target: T1, human 5-HT6 receptor (Homo sapiens, UniProt P50406)
T1 construct: host or cells: CHO-K1 cells, stably transfected; membranes prepared in house
Test: Human 5-HT6 Receptor Binding Assay ([3H]LSD displacement, scintillation beads)
Settings: membranes of CHO-K1 cells with recombinant human 5-HT6, 4 nM [3H]LSD, read-out: h5-HT6 (Ki)

T1 sequence (P50406 whole entry): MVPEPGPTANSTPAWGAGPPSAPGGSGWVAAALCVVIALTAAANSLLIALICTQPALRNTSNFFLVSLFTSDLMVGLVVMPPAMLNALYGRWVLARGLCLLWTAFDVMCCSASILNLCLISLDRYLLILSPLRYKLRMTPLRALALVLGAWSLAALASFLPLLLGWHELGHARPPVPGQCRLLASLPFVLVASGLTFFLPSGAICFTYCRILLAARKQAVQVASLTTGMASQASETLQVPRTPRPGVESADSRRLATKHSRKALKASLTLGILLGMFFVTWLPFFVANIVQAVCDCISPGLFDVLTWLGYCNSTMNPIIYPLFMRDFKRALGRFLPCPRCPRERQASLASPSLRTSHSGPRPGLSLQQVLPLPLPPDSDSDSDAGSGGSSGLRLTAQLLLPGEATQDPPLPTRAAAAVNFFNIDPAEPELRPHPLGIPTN

Row | Ki (Table 1, class symbols) | Compound | Ki (specific data)
1 | < 500 nM | CC1OCCC12NCCc1c2oc2cc(S(=O)(=O)c3cccc(F)c3)ccc12 (single isomer, unassigned) [Example 58, 7-[(3-Fluorophenyl)sulfonyl]-2′-methyl-3,4,4′,5′-tetrahydro-2H-spiro[1-benzofuro[2,3-c]pyridine-1,3′-furan]] | –
2 | < 500 nM | O=S(=O)(c1cccc(C(F)(F)F)c1)c1ccc2c(c1)OC1CNCCC21 (centres unmarked) [Example 167] | –
3 | > 1000 nM | O=S(=O)(Oc1ccc2c(c1)OC1CN(Cc3ccccc3)CCC21)c1ccc(Cl)cc1 (centres unmarked) [Example 803] | –
4 | < 500 nM | O=S(=O)(c1cccc(F)c1)c1ccc2oc3c(c2c1)CCNC3C1CCOCC1 (centres unmarked) [Example 520] | –
5 | < 500 nM | O=S(=O)(c1ccc2oc3c(c2c1)CCNC3)c1cccc2ccccc12 [Example 249] | –
6 | < 500 nM | N#Cc1ccc(S(=O)(=O)c2ccc3c4c(oc3c2)CNCC4)cc1 [Example 220] | –
7 | < 500 nM | O=S(=O)(Nc1ccc2c(c1)C1CCNCC1O2)c1cccc(Cl)c1 (centres unmarked) [Example 826] | –
8 | < 500 nM | CC(=O)NCC1(C)NCCc2c1oc1cc(S(=O)(=O)c3cccc(F)c3)ccc21 (centres unmarked) [Example 631, N-({7-[(3-fluorophenyl)sulfonyl]-1-methyl-1,2,3,4-tetrahydro[1]benzofuro[2,3-c]pyridin-1-yl}methyl)acetamide] | –
9 | < 500 nM | Cc1cccc(S(=O)(=O)c2ccc3c4c(oc3c2)CNCC4)n1 [Example 343, 7-[(6-methylpyridin-2-yl)sulfonyl]-1,2,3,4-tetrahydro[1]benzofuro[2,3-c]pyridine] | 6.6 nM
10 | < 500 nM | O=S(=O)(c1cccc(F)c1)c1ccc2oc3c(c2c1)CCNC3C1CCCC1 (centres unmarked) [Example 513] | –
11 | < 500 nM | CCC1(C)NCCc2c1oc1cc(S(=O)(=O)c3cccc(F)c3)ccc21 (racemic) [Example 27, 1-ethyl-7-[(3-fluorophenyl)sulfonyl]-1-methyl-1,2,3,4-tetrahydro[1]benzofuro[2,3-c]pyridine] | –
12 | > 1000 nM | COc1cccc(S(=O)(=O)Nc2ccc3c(c2)C2CCNCC2O3)c1 (centres unmarked) [Example 822] | –
13 | < 500 nM | Cc1ccc(S(=O)(=O)c2ccc3c(c2)OC2CNCCC32)cc1 (centres unmarked) [Example 121] | –
14 | < 500 nM | O=S(=O)(Oc1ccc2c(c1)C1CCNCC1O2)c1c(Cl)nc2sccn12 (centres unmarked) [Example 698] | –
15 | < 500 nM | O=S(=O)(Oc1ccc2c(c1)OC1CNCCC21)c1c(Cl)cccc1Cl (centres unmarked) [Example 679] | –
16 | > 1000 nM | O=S(=O)(Oc1ccc2c(c1)C1CCNCC1O2)c1ccc(F)cc1F (centres unmarked) [Example 712] | –
17 | < 500 nM | Cc1c(OCc2cccnc2)cccc1S(=O)(=O)c1ccc2c(c1)OC1CNCCC21 (centres unmarked) [Example 566] | –
18 | < 500 nM | O=S(=O)(c1ccc2c(c1)OCCO2)c1ccc2oc3c(c2c1)CCNC3 [Example 247] | –
19 | < 500 nM | O=S(=O)(c1ccccc1)c1ccc2c3c(oc2c1)CN(CCCO)CC3 [Example 595] | –
20 | < 500 nM | O=S(=O)(c1cccc(F)c1)c1ccc2c3c(oc2c1)C(CC(F)(F)F)NCC3 (centres unmarked) [Example 507] | –
21 | < 500 nM | COc1cccc(S(=O)(=O)c2ccc3c(c2)OC2CNCCC32)c1F (centres unmarked) [Example 416] | –

Row | Ki (Table 1, class symbols) | Compound | Ki (specific data)
22 | < 500 nM | O=S(=O)(Oc1ccc2c(c1)OC1CNCCC21)c1c(Cl)nc2sccn12 (centres unmarked) [Example 792] | –
23 | < 500 nM | COCCN1CCc2c(oc3cc(S(=O)(=O)c4ccccc4)ccc23)C1 [Example 594] | –
24 | < 500 nM | O=S(=O)(c1cc(Cl)cc(Cl)c1)c1ccc2c(c1)OC1CNCCC21 (centres unmarked) [Example 155] | –
25 | < 500 nM | O=S(=O)(c1ccc2c(c1)OC1CNCCC21)c1cccc2cccnc12 (centres unmarked) [Example 332] | –
26 | > 1000 nM | O=S(=O)(c1ccc2c(c1)C1CCNCC1O2)N1CCC2(CC1)OCc1ccccc12 (centres unmarked) [Example 862] | –
27 | > 1000 nM | O=S(=O)(c1ccc2oc3c(c2c1)CCNC3)C1CCCCC1 [Example 280] | –
28 | < 500 nM | CC1(C)NCCc2c1oc1cc(S(=O)(=O)c3cccc(F)c3F)ccc21 [Example 365] | –
29 | < 500 nM | O=S(=O)(c1cc(F)cc(F)c1)c1ccc2c3c([nH]c2c1)C1(CCCOC1)NCC3 (centres unmarked) [Example 312] | –
30 | < 500 nM | Cc1cccc(S(=O)(=O)c2ccc3c(c2)OC2CNCCC32)c1 (centres unmarked) [Example 141] | –
31 | > 1000 nM | CN(C)C(=O)c1cccc(S(=O)(=O)c2ccc3c4c(oc3c2)CNCC4)c1 [Example 474, N,N-Dimethyl-3-(1,2,3,4-tetrahydro[1]benzofuro[2,3-c]pyridin-7-ylsulfonyl)benzamide hydrochloride] | –
32 | 500 to 1000 nM | Cc1ccc(S(=O)(=O)Oc2ccc3c(c2)C2CCNCC2O3)cc1F (centres unmarked) [Example 709] | –
33 | < 500 nM | O=S(=O)(c1ccccc1)c1ccc2c3c(oc2c1)C(C(F)F)NCC3 (centres unmarked) [Example 523] | –
34 | < 500 nM | O=S(=O)(c1cccc(Cl)c1)c1ccc2c3c(oc2c1)C(CCC(F)(F)F)NCC3 (centres unmarked) [Example 522] | –
35 | < 500 nM | O=S(=O)(Oc1ccc2c(c1)OC1CNCCC21)c1ccc(Cl)cc1 (centres unmarked) [Example 635, 1,2,3,4,4a,9a-Hexahydro[1]benzofuro[2,3-c]pyridin-7-yl 4-chlorobenzenesulfonate] | –
36 | < 500 nM | O=S(=O)(c1cc(Cl)cc(Cl)c1)c1ccc2oc3c(c2c1)CCNC3 [Example 262, 6-[(3,5-dichlorophenyl)sulfonyl]-1,2,3,4-tetrahydro[1]benzofuro[2,3-c]pyridine] | –
37 | < 500 nM | O=S(=O)(c1cccc(Cl)c1)c1ccc2c3c(oc2c1)CN(CC(F)(F)F)CC3 [Example 604] | –
38 | < 500 nM | O=S(=O)(c1ccc2c(c1)OC1CNCCC21)c1ccccc1OCC(F)(F)F (centres unmarked) [Example 421] | –
39 | < 500 nM | O=S(=O)(c1cccc(F)c1)c1ccc2oc3c(c2c1)CCNC3CCBr (centres unmarked) [Example 514] | –
40 | < 500 nM | Cc1cc(C)c(S(=O)(=O)Oc2ccc3c(c2)OC2CNCCC32)c(C)c1 (centres unmarked) [Example 656] | –
41 | < 500 nM | O=S(=O)(c1ccc(Cl)cc1)c1ccc2oc3c(c2c1)CCNC3 [Example 250] | –
42 | < 500 nM | Cc1cccc(S(=O)(=O)c2ccc3c4c(oc3c2)C(C)(C)NCC4)n1 [Example 19, 1,1-dimethyl-7-[(6-methylpyridin-2-yl)sulfonyl]-1,2,3,4-tetrahydro[1]benzofuro[2,3-c]pyridine] | –

Row | Ki (Table 1, class symbols) | Compound | Ki (specific data)
43 | < 500 nM | O=S(=O)(c1ccccc1)c1ccc2c(c1)OC1CN(C3CCC3)CCC21 (centres unmarked) [Example 606, 2-Cyclobutyl-7-(phenylsulfonyl)-1,2,3,4,4a,9a-hexahydro[1]benzofuro[2,3-c]pyridine trifluoroacetic acid salt] | –
44 | > 1000 nM | COc1ccc(F)cc1S(=O)(=O)c1ccc2c(c1)OC1CNCCC21 (centres unmarked) [Example 132] | –
45 | > 1000 nM | CC(C)N1CCC2c3ccc(OS(=O)(=O)c4ccc(Cl)cc4)cc3OC2C1 (centres unmarked) [Example 798, 2-(Propan-2-yl)-1,2,3,4,4a,9a-hexahydro[1]benzofuro[2,3-c]pyridin-7-yl-4-chlorobenzenesulfonate] | –
46 | 500 to 1000 nM | O=S(=O)(c1ccc2c(c1)C1CCNCC1O2)c1ccccc1Cl (centres unmarked) [Example 169] | –
47 | 500 to 1000 nM | O=S(=O)(Oc1ccc2c(c1)C1CCNCC1O2)c1ccc(-n2cccn2)cc1 (centres unmarked) [Example 733] | –
48 | < 500 nM | O=S(=O)(c1cccc(Cl)c1)c1ccc2c3c(oc2c1)CN(CCO)CC3 [Example 599] | –
49 | > 1000 nM | O=S(=O)(Cc1ccccc1)Oc1ccc2c(c1)OC1CNCCC21 (centres unmarked) [Example 637] | –
50 | < 500 nM | Cc1c(S(=O)(=O)Oc2ccc3c(c2)C2CCNCC2O3)sc2ccc(Cl)cc12 (centres unmarked) [Example 748] | –
51 | < 500 nM | O=S(=O)(c1cc(F)cc(F)c1)c1ccc2c3c(oc2c1)CNCC3 [Example 107, 7-(3,5-Difluoro-benzenesulfonyl)-1,2,3,4-tetrahydro-benzo[4,5]furo[2,3-c]pyridine hydrochloride] | –
52 | < 500 nM | Cc1cccc(S(=O)(=O)c2ccc3oc4c(c3c2)CCNC4)n1 [Example 350] | –
53 | < 500 nM | O=S(=O)(c1cccc(F)c1)c1ccc2c3c(oc2c1)C(CCBr)NCC3 (centres unmarked) [Example 497] | –
54 | > 1000 nM | O=[N+]([O-])c1ccc(S(=O)(=O)Oc2ccc3c(c2)C2CCNCC2O3)cc1 (centres unmarked) [Example 749] | –
55 | > 1000 nM | O=S(=O)(c1ccccc1)c1ccc2c(c1)C1CCNCC1O2 (centres unmarked) [Example 337, 6-(phenylsulfonyl)-1,2,3,4,4a,9a-hexahydro[1]benzofuro[2,3-c]pyridine] | –
56 | < 500 nM | O=S(=O)(c1cccc(F)c1)c1ccc2c3c(oc2c1)C1(CCCC1)NCC3 [Example 28, 7-[(3-fluorophenyl)sulfonyl]-3,4-dihydro-2H-spiro[1-benzofuro[2,3-c]pyridine-1,1′-cyclopentane]] | –
57 | > 1000 nM | O=S(=O)(Oc1ccc2c(c1)OC1CNCCC21)c1ccc(Oc2ccccc2)nc1 (centres unmarked) [Example 685] | –
58 | > 1000 nM | Cc1ccc(S(=O)(=O)Oc2ccc3c(c2)OC2CNCCC32)cc1Cl (centres unmarked) [Example 659] | –
59 | 500 to 1000 nM | O=S(=O)(Oc1ccc2c(c1)C1CCNCC1O2)c1ccc(F)c(Cl)c1 (centres unmarked) [Example 723] | –
60 | < 500 nM | COc1ccc(S(=O)(=O)c2ccc3c4c(oc3c2)CNCC4)cc1F [Example 194] | –
61 | < 500 nM | CCCCOc1cc(OC)cc(S(=O)(=O)c2ccc3c(c2)OC2CNCCC32)c1 (centres unmarked) [Example 587] | –

Row | Compound | Ki (Table 1, class symbols) | Ki (specific data)
62 | O=S(=O)(c1ccc2c(c1)OC1CNCCC21)c1cccnc1Cl (centres unmarked) [Example 390] | < 500 nM | –
63 | 1,2,3,4,4a,9a-hexahydro[1]benzofuro[2,3-c]pyridin-7-yl naphthalene-2-sulfonate [Example 660] | < 500 nM | 11.4 nM
64 | CC12CCNCC1Oc1ccc(OS(=O)(=O)c3ccc(-n4cccn4)cc3)cc12 (centres unmarked) [Example 776] | > 1000 nM | –
65 | O=S(=O)(Oc1ccc2c(c1)OC1CNCCC21)c1ccccn1 (centres unmarked) [Example 689] | > 1000 nM | –
66 | O=S(=O)(Oc1ccc2c(c1)C1CCNCC1O2)c1ccccn1 (centres unmarked) [Example 753] | > 1000 nM | –
67 | Cc1oncc1S(=O)(=O)Oc1ccc2c(c1)OC1CNCCC21 (centres unmarked) [Example 640] | > 1000 nM | –
68 | COc1cccc(S(=O)(=O)c2ccc3c(c2)OC2CNCCC32C)c1 (racemic) [Example 4, 7-[(3-methoxyphenyl)sulfonyl]-4a-methyl-1,2,3,4,4a,9a-hexahydro[1]benzofuro[2,3-c]pyridine] | < 500 nM | –
69 | CC12CCNCC1Oc1ccc(OS(=O)(=O)c3csc4ccccc34)cc12 (centres unmarked) [Example 772] | < 500 nM | –
